These results are taken from patent US7985771B2, “Furanone derivatives” (Monsanto Technology LLC, priority 2002, dated 2011).

Where only a bound is given, the exact number is not on record here.

For assay [1], the system named is IL-1beta release from a mouse microglial cell line. As to the kind of experiment: Interleukin-1 beta microglial cell assay. The conditions noted are these: LPS and IFN gamma stimulation, 24 hours, read-out: inhibition of IL-1beta induction, EC50. It is filed as cell-based. As to the method: This assay measures the release of IL-1β from a mouse microglial cell line following an inflammatory challenge with LPS and interferon-gamma. The ability of test articles to inhibit microglial cell activation and IL-1beta release is determined by co-incubation of the test article with the inflammatory challenge. Cytokine release is measured using a mouse IL-1β ELISA and cell toxicity is determined using Cell Tracker Green (a fluorescent dye that measures cell viability).
Mouse microglial cells were seeded in poly-D-lysine coated 96-well plates at a density of 10,000 cells/well and allowed to attach for 24 hours. Cells were stimulated by addition of LPS (10 μg/ml) and IFN gamma (10 ng/ml) in the presence or absence of test article. The cells were then incubated for 24 hours at 37° C., after which time the media was removed and used for cytokine determination as described below.
Viability of mouse microglial cells after exposure to the test article was determined using a fluorescent viability dye, Cell Tracker Green. Cell Tracker Green was used at a working concentration of 5 μM in 1× HBSS. Cells were washed once with HBSS (200 μl/well) and 100 μl Cell Tracker Green was added to each well. Cells were then incubated at 37° C. for 30 minutes, after which time the Cell Tracker was removed and the cells were washed once with HBSS (200 μl/well). 100 μl fresh HBSS was added to each well and the plate was read on a Fluoroskan plate reader using an excitation wavelength of 485 nm and an emission wavelength of 538 nm.
1. The IL-1β capture antibody was reconstituted in 1 ml of PBS to give a final concentration of 720 μg/ml, and the working concentration was 4 μg/ml. For coating one 96-well plate (at 100 μl/well) 56 μl of the 720 μg/ml stock was diluted into 10 ml of PBS. 2. The IL-1β standards were reconstituted in 0.5 ml of Reagent Diluent (70 ng/ml). For a high standard of 1 ng/ml (2 wells at 100 μl each+enough for series dilution) 7.1 μl of the 70 ng/ml standard were diluted into 0.5 ml of Reagent Diluent 3. The IL-1β detection antibody was reconstituted in 1 ml of Reagent Diluent to give a final concentration of 18 μg/ml and the working concentration is 100 ng/ml. For one 96-well plate (at 100 μl/well) 56 μl of the 18 μg/ml stock was diluted into 10 ml of Reagent Diluent.
1. The Costar EIA Hi-binding plate was coated with capture antibody at 4 μg/ml. Each well was coated with 100 μl, and the plate was sealed and incubated overnight at room temperature.
2. Each well was aspirated and washed 3× with Wash Buffer. Each well was filled to the top, dispensed, and any remaining buffer was removed by inverting the plate and gently blotting against clean paper towels.
3. Non-specific binding sites were blocked by adding 300 μl of Blocking Buffer to each well, and after sealing incubating for at least 1 hour at room temperature.
5. 100 μl of either standard or sample were added in each well of the capture-coated and pre-blocked plate. The plate was sealed and incubated for 2 hours at room temperature, followed with washing as in step 2.
6. 100 μl of the detection antibody ([…]) were added to each well.
7. The plate was sealed and incubated at room temperature for 2 hours, followed with washing as in step 2.
8. 100 μl of the working dilution of Streptavidin-HRP was added, and the plate was sealed and incubated in the dark for 20 minutes at room temperature, followed with washing as in Step 2.
9. The fresh Substrate Solution was prepared by mixing Color Reagent A (H2O2) and Color Reagent B (Tetramethylbenzidine) in a 1:1 ratio. 100 μl of this Substrate Solution mixture was added to each well and the plate was incubated in the dark for 20 minutes at room temperature. 10. 50 μl of Stop Solution was added to each well, mixing was ensured by gently tapping. 11. Each plate was read with the Spectramax once at 450 nm. Results

Assay [2] concerns ELAM (E-selectin) expression in endothelial cells. The experiment in a line: E-selectin (ELAM) cell inflammation assay. It is filed as cell-based. Conditions: LPS and IL-1β stimulation, read-out: reduction of expression of ELAM, EC50. As to the method:
Endothelial-Leukocyte Adhesion Molecule (ELAM), also known as E-selectin, is expressed on the surface of endothelial cells. In this assay, lipopolysaccharide (LPS) and IL-1β are used to stimulate the expression of ELAM; test agents are tested for their abilities to reduce this expression, in accordance with studies showing that reduction of leukocyte adhesion to endothelial cell surface is associated with decreased cellular damage (e.g., Takada, M., Et al., Transplantation 64: 1520-25, 1997; Steinberg, J. B., et al., J. Heart Lung Trans. 13:306-313, 1994).
Endothelial cells may be selected from any of a number of sources and cultured according to methods known in the art; including, for example, coronary artery endothelial cells, human brain microvascular endothelial cells (HBMEC; Hess, D.C., et al., Neurosci. Left. 213(1): 37-40, 1996), or lung endothelial cells. Cells are conveniently cultured in 96-well plates. Cells are stimulated by adding a solution to each well containing 10 μg/ml LPS and 100 pg/ml IL-1β for 6 hours in the presence of test agent (specific concentrations and time may be adjusted depending on the cell type). Treatment buffer is removed and replaced with pre-warmed Fixing Solution® (100 μl/well) for 25 minutes at room temperature. Cells are then washed 3×, then incubated with Blocking Buffer (PBS+2% FBS) for 25 minutes at room temperature. Blocking Buffer containing Monoclonal E-Selectin Antibody (1:750, Sigma Catalog #S-9555) is added to each well. Plates are sealed and stored at 4° overnight. Plates are washed 4× with 160 μL Blocking Buffer per well. Second Antibody-HRP diluted 1:5000 in Blocking Buffer is then added (100 μL/well), and plates are incubated at room temperature (protected from light) for two hours. Plates are then washed 4× with Blocking Buffer before addition of 100 μL of ABTS Substrate solution at room temperature (Zymed, Catalog #00-2024). Wells are allowed to develop for 35 minutes, before measurement at 402 nm in a Fluoroskan® Reader with shake program for 10 seconds. Positive results are recorded as a decrease in ELAM concentration in tested wells, as compared to control wells.

For orientation: EC50 means the concentration giving half of the maximal effect. `CCOC(=O)C1(CSc2nc3ccccc3[nH]2)OC(=O)C(OCC)=C1Sc1nc2ccccc2n1CC` (stereo not shown) [2-(1H-Benzoimidazol-2-ylsulfanylmethyl)-4-ethoxy-3-(1-ethyl-1H-benzoimidazol-2-ylsulfanyl)-5-oxo-2,5-dihydro-furan-2-carboxylic acid ethyl ester]: the half-maximal effective concentration (EC50) in assay [1] was at most 20 µM; in assay [2] it was at most 30 µM.

`CCOC(=O)C1(C[S+]([O-])c2nc3ccccc3s2)OC(=O)C(O)=C1Sc1nc2ccccc2s1` (stereo not shown) [2-(Benzothiazole-2-sulfinylmethyl)-3-(benzothiazol-2-ylsulfanyl)-4-hydroxy-5-oxo-2,5-dihydro-furan-2-carboxylic acid ethyl ester]: the EC50 in assay [1] was at most 20 µM; in assay [2], at most 30 µM.

As for `CCOC(=O)C1(CSCc2ccc(Cl)cc2Cl)OC(=O)C(O)=C1SCc1ccc(Cl)cc1Cl` (stereo not shown) [3-(2,4-Dichloro-benzylsulfanyl)-2-(2,4-dichloro-benzylsulfanylmethyl)-4-hydroxy-5-oxo-2,5-dihydro-furan-2-carboxylic acid ethyl ester], the EC50 in assay [1] is at most 20 µM; in assay [2], at most 30 µM. `CCOC(=O)C1(CSc2ccc(F)cc2Cl)OC(=O)C(O)=C1Sc1ccc(F)cc1Cl` (stereo not shown) [3-(2-Chloro-4-fluoro-phenylsulfanyl)-2-(2-chloro-4-fluoro-phenylsulfanylmethyl)-4-hydroxy-5-oxo-2,5-dihydro-furan-2-carboxylic acid ethyl ester]: the concentration giving a half-maximal response (EC50) was at most 20 µM in assay [1] and at most 30 µM in assay [2].

Regarding `CCOC(=O)C1(CSCc2c(F)cccc2Cl)OC(=O)C(O)=C1SCc1c(F)cccc1Cl` (stereo not shown) [3-(2-Chloro-6-fluoro-benzylsulfanyl)-2-(2-chloro-6-fluoro-benzylsulfanylmethyl)-4-hydroxy-5-oxo-2,5-dihydro-furan-2-carboxylic acid ethyl ester], the half-maximal effective concentration (EC50) in assay [1] was at most 20 µM; in assay [2], at most 30 µM. Consider `CCOC(=O)C1(C(=O)OCC)OC(=O)C(O)=C1SCc1ccc(F)cc1` [3-(4-Fluoro-benzylsulfanyl)-4-hydroxy-5-oxo-5H-furan-2,2-dicarboxylic acid diethyl ester], for which the EC50 in assay [1] is at most 20 µM; in assay [2] it was at most 30 µM.

As for `COC(=O)C1(CSc2nc3ccccc3s2)OC(=O)C(O)=C1Sc1nc2ccccc2o1` (stereo not shown) [3-(Benzooxazol-2-ylsulfanyl)-2-(benzothiazol-2-ylsulfanylmethyl)-4-hydroxy-5-oxo-2,5-dihydro-furan-2-carboxylic acid methyl ester], the EC50 in assay [1] was at most 20 µM. Consider `CCOC(=O)C1(CSc2nc3ccccc3[se]2)OC(=O)C(O)=C1Sc1nc2ccccc2[se]1` (stereo not shown) [3-(Benzoselenazol-2-ylsulfanyl)-2-(benzoselenazol-2-ylsulfanylmethyl)-4-hydroxy-5-oxo-2,5-dihydro-furan-2-carboxylic acid ethyl ester], for which the values for the EC50 in assay [1] and in assay [2] were at most 20 µM and at most 30 µM, respectively. On the same counts, the results for `CCOC(=O)C1(CSc2nc3ccccc3s2)OC(=O)C(O)=C1Sc1nc2ccccc2s1` (stereo not shown) [3-(Benzothiazol-2-ylsulfanyl)-2-(benzothiazol-2-ylsulfanylmethyl)-4-hydroxy-5-oxo-2,5-dihydro-furan-2-carboxylic acid ethyl ester] are at most 20 µM and at most 30 µM. On the same counts, the results for `CC(C)OC(=O)C1(CSc2nc3ccccc3s2)OC(=O)C(O)=C1Sc1nc2ccccc2s1` (stereo not shown) [3-(Benzothiazol-2-ylsulfanyl)-2-(benzothiazol-2-ylsulfanylmethyl)-4-hydroxy-5-oxo-2,5-dihydro-furan-2-carboxylic acid isopropyl ester] are at most 20 µM and at most 30 µM. On to `CCOC(=O)C1(C[S+]([O-])Cc2ccco2)OC(=O)C(O)=C1[S+]([O-])Cc1ccco1` (stereo not shown) [3-(Furan-2-ylmethanesulfinyl)-2-(furan-2-ylmethanesulfinylmethyl)-4-hydroxy-5-oxo-2,5-dihydro-furan-2-carboxylic acid ethyl ester], for which the EC50 was at most 20 µM in assay [1] and at most 30 µM in assay [2]. For the compound `CCOC(=O)C1(CSCc2ccco2)OC(=O)C(O)=C1SCc1ccco1` (stereo not shown) [3-(Furan-2-ylmethylsulfanyl)-2-(furan-2-ylmethylsulfanylmethyl)-4-hydroxy-5-oxo-2,5-dihydro-furan-2-carboxylic acid ethyl ester], the EC50 in assay [1] was at most 20 µM.

As to `CCCCSCC1(C(=O)OCC)OC(=O)C(O)=C1SCCCC` (stereo not shown) [3-Butylsulfanyl-2-butylsulfanylmethyl-4-hydroxy-5-oxo-2,5-dihydro-furan-2-carboxylic acid ethyl ester], in assay [1], the EC50 was at most 20 µM. In the case of `CCOC(=O)C1(CSCc2ccco2)OC(=O)C(OC(=O)C(C)(C)C)=C1SCc1ccco1` (stereo not shown) [4-(2,2-Dimethyl-propionyloxy)-3-(furan-2-ylmethylsulfanyl)-2-(furan-2-ylmethylsulfanylmethyl)-5-oxo-2,5-dihydro-furan-2-carboxylic acid ethyl ester], the concentration for a half-maximal effect (EC50) in assay [1] is at most 20 µM. Same read-out and setting: the figure for `O=C1OC(CO)(CSc2nc3ccccc3o2)C(Sc2nc3ccccc3o2)=C1O` (stereo not shown) [4-(Benzooxazol-2-ylsulfanyl)-5-(benzooxazol-2-ylsulfanylmethyl)-3-hydroxy-5-hydroxymethyl-5H-furan-2-one] is at most 20 µM; for `CCOC(=O)C1(CSCc2ccc(OC)cc2)OC(=O)C(O)=C1SCc1ccc(OC)cc1` (stereo not shown) [4-Hydroxy-3-(4-methoxy-benzylsulfanyl)-2-(4-methoxy-benzylsulfanylmethyl)-5-oxo-2,5-dihydro-furan-2-carboxylic acid ethyl ester] it is at most 20 µM. For `CCOC(=O)C1(CSc2nccc(C)n2)OC(=O)C(O)=C1Sc1nccc(C)n1` (stereo not shown) [4-Hydroxy-3-(4-methyl-pyrimidin-2-ylsulfanyl)-2-(4-methyl-pyrimidin-2-ylsulfanylmethyl)-5-oxo-2,5-dihydro-furan-2-carboxylic acid ethyl ester], the EC50 in assay [1] is at most 20 µM.

Regarding `CCOC(=O)C1(CSc2ncccn2)OC(=O)C(O)=C1Sc1ncccn1` (stereo not shown) [4-Hydroxy-5-oxo-3-(pyrimidin-2-ylsulfanyl)-2-(pyrimidin-2-ylsulfanylmethyl)-2,5-dihydro-furan-2-carboxylic acid ethyl ester], the EC50 in assay [1] was at most 20 µM.
